Test results taken from patent publication US20260193244A1 (Protego Biopharma, Inc., priority 2022, published 2026).

Tested on: IRE1-XBP1s (HEK293 T-REx cells stably expressing the XBP1-RLuc splicing reporter)
Experiment: IRE1-XBP1s activation Assay (XBP1-RLuc splicing reporter, luminescence relative to thapsigargin, with or without IRE1 inhibitor 4μ8C)
Type: cell-based
Conditions: 18 h, compound 10 μM, luminescence as percentage signal relative to thapsigargin (Tg) (500 nM, 18 h)
Method: IRE1-XBP1s activation Assay: HEK293 T-REx cells stably expressing the XBP1-RLuc splicing reporter were treated with an IRE1-XBP1s activator provided herein (10 μM) in the presence or absence of the IRE1 active site inhibitor 4μ8C (32 μM) for 18 h. Luminescence was shown as the percentage signal relative to thapsigargin (Tg) (500 nM, 18 h).

First: Cc1ccc(OCCN(C)C(=O)Cn2cc(NC(=O)C3COc4cccc(C)c4O3)cn2)cc1 (stereo not drawn) [Compound 125]
Second: Cc1ccc(OCCN(C)C(=O)Cn2cc(NC(=O)C3COc4cccc(C(C)C)c4O3)cn2)cc1 (stereo not drawn) [Compound 126]
The activation at 10 µM of the first is higher: 30 to 50% for the first, less than 30% for the second.

Cc1ccc(OCCN(C)C(=O)Cn2cc(NC(=O)C3CNc4cccc(F)c4O3)cn2)cc1 (stereo not drawn) [Compound 127] and Cc1ccc(OCCN(C)C(=O)Cn2cc(NC(=O)C3COc4c(F)cccc4O3)cn2)cc1 (stereo not drawn) [Compound 129] cannot be ordered by activation at 10 µM: 30 to 50% for the first, no less than 50% for the second.

Cc1ccc(OCCN(C)C(=O)Cn2cc(NC(=O)C3Oc4ccccc4O3)cn2)cc1 [Compound 128] and Cc1ccc(OCCN(C)C(=O)Cn2cc(NC(=O)C3CN(c4ccccc4)C3)cn2)cc1 [Compound 138] cannot be ordered by activation at 10 µM: less than 30% for the first, less than 30% for the second.

Cc1ccc(OCCN(C)C(=O)Cn2cc(NC(=O)OC3CCCN(c4ccnc(F)n4)C3)cn2)cc1 (stereo not drawn) [Compound 130, 1-(2-fluoropyrimidin-4-yl)piperidin-3-yl (1-(2-(methyl (2-(p-tolyl-oxy)ethyl)amino)-2-oxoethyl)-1H-pyrazol-4-yl)carbamate] and Cc1ccc(OCCN(C)C(=O)Cn2cc(NC(=O)COC3CCCN(c4ccnc(F)n4)C3)cn2)cc1 (stereo not drawn) [Compound 137] cannot be ordered by activation at 10 µM: less than 30% for the first, less than 30% for the second.

Cc1ccc(OCCN(C)C(=O)Cn2cc(NC(=O)OC3CCCN(c4nccc(F)n4)C3)cn2)cc1 (stereo not drawn) [Compound 131, 1-(4-fluoropyrimidin-2-yl)piperidin-3-yl (1-(2-(methyl (2-(p-tolyloxy)ethyl)-amino)-2-oxoethyl)-1H-pyrazol-4-yl)carbamate] and Cc1ccc(OCCN(C)C(=O)Cn2cc(NC(=O)COC3CCCN(c4nccc(F)n4)C3)cn2)cc1 (stereo not drawn) [Compound 132] cannot be ordered by activation at 10 µM: less than 30% for the first, less than 30% for the second.

Cc1ccc(OCCN(C)C(=O)Cn2cc(NC(=O)C3CNCC3Nc3ccnc(O)n3)cn2)cc1 (stereo not drawn) [Compound 133] and Cc1ccc(OCCN(C)C(=O)Cn2cc(NC(=O)C3CC(Nc4ccncc4)C3)cn2)cc1 (stereo not drawn) [Compound 135] cannot be ordered by activation at 10 µM: less than 30% for the first, less than 30% for the second.

Cc1ccc(OC2CCC23CN(C(=O)Cn2cc(NC(=O)CCNc4nccc(F)n4)cn2)C3)cc1 (stereo not drawn) [Compound 134] and Cc1ccc(O[C@H]2CCCN(C(=O)Cn3cc(NC(=O)CCNc4nccc(F)n4)cn3)C2)cc1 [Compound 136] cannot be ordered by activation at 10 µM: less than 30% for the first, less than 30% for the second.

Going from Cc1ccc(OCCN(C)C(=O)Cn2cc(NC(=O)C3CC(Oc4ccncc4)C3)cn2)cc1 (stereo not drawn) [Compound 139, N-(1-(2-(methyl (2-(p-tolyloxy)ethyl)amino)-2-oxoethyl)-1H-pyrazol-4-yl)-3-(pyridin-4-yloxy)cyclobutane-1-carboxamide] to Cc1ccc(OCCN(C)C(=O)Cn2cc(NC(=O)C3CC(Oc4ccncc4)CCO3)cn2)cc1 (stereo not drawn) [Compound 141], the activation at 10 µM falls from no less than 50% to less than 30%.

Going from Cc1ccc(OCCN(C)C(=O)Cn2cc(NC(=O)C3CC(Oc4ccccn4)C3)cn2)cc1 (stereo not drawn) [Compound 140] to Cc1ccc(OCCN(C)C(=O)Cn2cc(NC(=O)C3CC(Oc4cccc(C)n4)C3)cn2)cc1 (stereo not drawn) [Compound 142], the activation at 10 µM falls from no less than 50% to less than 30%.

Compared with Cc1ccc(OC2CCC23CN(C(=O)Cn2cc(NC(=O)C4CC(Oc5ccncc5)C4)cn2)C3)cc1 (stereo not drawn) [Compound 144], Cc1ccc(O[C@H]2CCCN(C(=O)Cn3cc(NC(=O)COc4cccnc4)cn3)C2)cc1 [Compound 149] is lower in activation at 10 µM: no less than 50% for the first, less than 30% for the second.

O=C(Cn1cc(NC(=O)[C@H]2C[C@H](Oc3ccccn3)C2)cn1)N1CCC[C@H](Oc2ccc(C(F)(F)F)cn2)C1 [Compound 145] and Cc1ccc(O[C@H]2CCCN(C(=O)Cn3cc(NC(=O)COc4ccccn4)cn3)C2)cc1 [Compound 150] cannot be ordered by activation at 10 µM: less than 30% for the first, less than 30% for the second.

Cc1ccc(O[C@H]2CCCN(C(=O)Cn3cc(NC(=O)COc4ccccc4)cn3)C2)cc1 [Compound 146, N-[1-[2-[(3S)-3-(4-methylphenoxy)-1-piperidyl]-2-oxo-ethyl]pyrazol-4-yl]-2-phenoxy-acetamide] and Cc1ccc(O[C@H]2CCCN(C(=O)Cn3cc(NC(=O)C4COc5ccccc5O4)cn3)C2)cc1 (stereo partly drawn) [Compound 147] cannot be ordered by activation at 10 µM: less than 30% for the first, less than 30% for the second.
